# According to ChEMBL document CHEMBL1759974, “Discovery of triazine-benzimidazoles as selective inhibitors of mTOR” (Bioorg Med Chem Lett, 2011):
# pIC50: −log10 of the molar value.
# Tests used:
# Rattus norvegicus [1] = test: AUC in Sprague-Dawley rat at 5 mg/kg, po; type: ADME, organism-based, Plasma; set-up: dose 5 mg/kg, route oral; settings: in vivo
# [2] = target: Phosphatidylinositol 4,5-bisphosphate 3-kinase catalytic subunit gamma isoform (Homo sapiens, UniProt P48736)
# [3] = target: T1, Serine/threonine-protein kinase mTOR (Homo sapiens, UniProt P42345)
# [4] = target: T1, Serine/threonine-protein kinase mTOR; remark: listed apart in the source
# Description: Inhibition of mTOR in human U-87 cells assessed as inhibition of phosphorylation of AKT at S473
# [5] = target: T2, Phosphatidylinositol 4,5-bisphosphate 3-kinase catalytic subunit delta isoform (Homo sapiens, UniProt O00329)
# T2 sequence (O00329 whole entry): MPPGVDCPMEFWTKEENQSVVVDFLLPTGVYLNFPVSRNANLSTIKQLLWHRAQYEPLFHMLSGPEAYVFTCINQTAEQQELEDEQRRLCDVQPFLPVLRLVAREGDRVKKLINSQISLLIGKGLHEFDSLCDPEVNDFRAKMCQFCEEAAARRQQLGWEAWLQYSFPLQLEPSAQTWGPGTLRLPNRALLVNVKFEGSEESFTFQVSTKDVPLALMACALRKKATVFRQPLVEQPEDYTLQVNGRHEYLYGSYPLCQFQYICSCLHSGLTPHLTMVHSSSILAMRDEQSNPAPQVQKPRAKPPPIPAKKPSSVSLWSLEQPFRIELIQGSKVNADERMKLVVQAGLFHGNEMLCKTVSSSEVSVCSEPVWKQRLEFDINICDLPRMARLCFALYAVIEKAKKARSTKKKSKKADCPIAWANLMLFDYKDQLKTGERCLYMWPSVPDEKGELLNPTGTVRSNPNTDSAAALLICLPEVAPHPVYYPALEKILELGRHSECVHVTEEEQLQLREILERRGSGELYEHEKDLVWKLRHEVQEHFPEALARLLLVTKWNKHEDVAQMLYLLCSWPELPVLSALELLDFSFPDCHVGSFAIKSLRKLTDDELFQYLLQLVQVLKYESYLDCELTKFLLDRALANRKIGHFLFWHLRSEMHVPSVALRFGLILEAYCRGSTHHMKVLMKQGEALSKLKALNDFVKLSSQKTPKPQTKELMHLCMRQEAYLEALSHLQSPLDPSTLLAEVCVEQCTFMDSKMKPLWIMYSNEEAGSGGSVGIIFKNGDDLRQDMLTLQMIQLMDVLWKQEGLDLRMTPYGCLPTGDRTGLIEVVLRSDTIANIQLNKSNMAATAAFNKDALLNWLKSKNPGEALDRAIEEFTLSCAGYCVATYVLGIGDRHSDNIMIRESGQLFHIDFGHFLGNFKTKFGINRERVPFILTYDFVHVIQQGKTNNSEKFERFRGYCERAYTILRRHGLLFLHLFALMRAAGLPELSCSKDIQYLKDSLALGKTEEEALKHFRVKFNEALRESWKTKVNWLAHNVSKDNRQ
# [6] = Half life in Sprague-Dawley rat at 5 mg/kg, po; type: ADME, organism-based; set-up: dose 5 mg/kg, route oral; settings: in vivo
# [7] = target: T1, Serine/threonine-protein kinase mTOR; remark: listed apart in the source
# [8] = target: Phosphatidylinositol 4,5-bisphosphate 3-kinase catalytic subunit alpha isoform (Homo sapiens, UniProt P42336)
# [9] = target: Phosphatidylinositol 4,5-bisphosphate 3-kinase catalytic subunit beta isoform (Homo sapiens, UniProt P42338)
# Rattus norvegicus [10] = test: AUC in Sprague-Dawley rat at 0.5 mg/kg, iv; type: ADME, organism-based, Plasma; set-up: dose 0.5 mg/kg, route intravenous; settings: in vivo
# [11] = Volume of distribution at steady state in Sprague-Dawley rat at 0.5 mg/kg, iv; type: ADME, organism-based; set-up: dose 0.5 mg/kg, route intravenous; settings: in vivo, read-out: Vdss
# [12] = Half life in Sprague-Dawley rat at 0.5 mg/kg, iv; type: ADME, organism-based; set-up: dose 0.5 mg/kg, route intravenous; settings: in vivo
# [13] = Clearance in Sprague-Dawley rat at 0.5 mg/kg, iv; type: ADME, organism-based; set-up: dose 0.5 mg/kg, route intravenous; settings: in vivo
# [14] = Plasma protein binding in Sprague-Dawley rat at 1 mg/kg, iv and 2 mg/kg, po; type: ADME, organism-based; settings: read-out: PPB (converted)
# [15] = Oral bioavailability in Sprague-Dawley rat at 2 mg/kg; type: ADME, organism-based; settings: in vivo
# Chain of Phosphatidylinositol 4,5-bisphosphate 3-kinase catalytic subunit beta isoform (P42338 whole entry, canonical isoform): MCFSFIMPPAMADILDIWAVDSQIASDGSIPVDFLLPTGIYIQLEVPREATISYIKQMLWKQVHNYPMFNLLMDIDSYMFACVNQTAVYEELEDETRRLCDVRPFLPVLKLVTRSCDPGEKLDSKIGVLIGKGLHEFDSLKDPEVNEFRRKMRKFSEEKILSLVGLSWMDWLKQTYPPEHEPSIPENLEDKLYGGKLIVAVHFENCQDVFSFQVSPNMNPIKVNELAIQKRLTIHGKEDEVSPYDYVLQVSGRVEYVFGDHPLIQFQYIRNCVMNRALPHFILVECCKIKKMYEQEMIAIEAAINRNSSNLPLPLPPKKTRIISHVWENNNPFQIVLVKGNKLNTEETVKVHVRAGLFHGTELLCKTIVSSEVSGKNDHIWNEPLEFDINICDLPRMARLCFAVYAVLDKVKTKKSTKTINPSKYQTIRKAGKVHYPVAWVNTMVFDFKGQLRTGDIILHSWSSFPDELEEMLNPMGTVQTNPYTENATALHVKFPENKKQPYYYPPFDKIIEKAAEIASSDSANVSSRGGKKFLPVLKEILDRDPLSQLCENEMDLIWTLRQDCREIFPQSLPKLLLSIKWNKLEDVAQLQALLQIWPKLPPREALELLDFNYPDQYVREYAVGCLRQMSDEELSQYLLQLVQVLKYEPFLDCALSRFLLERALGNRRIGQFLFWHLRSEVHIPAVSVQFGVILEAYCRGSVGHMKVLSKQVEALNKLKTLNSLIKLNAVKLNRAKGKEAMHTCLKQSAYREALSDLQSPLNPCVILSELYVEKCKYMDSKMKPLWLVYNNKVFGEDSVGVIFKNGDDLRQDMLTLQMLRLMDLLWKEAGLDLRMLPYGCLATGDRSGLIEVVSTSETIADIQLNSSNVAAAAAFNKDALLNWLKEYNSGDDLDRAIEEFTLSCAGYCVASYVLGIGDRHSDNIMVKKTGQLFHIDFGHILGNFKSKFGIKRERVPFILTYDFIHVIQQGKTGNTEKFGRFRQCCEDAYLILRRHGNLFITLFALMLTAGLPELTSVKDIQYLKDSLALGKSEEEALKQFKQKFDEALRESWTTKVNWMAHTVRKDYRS
# Chain of Phosphatidylinositol 4,5-bisphosphate 3-kinase catalytic subunit gamma isoform (P48736 whole entry, canonical isoform): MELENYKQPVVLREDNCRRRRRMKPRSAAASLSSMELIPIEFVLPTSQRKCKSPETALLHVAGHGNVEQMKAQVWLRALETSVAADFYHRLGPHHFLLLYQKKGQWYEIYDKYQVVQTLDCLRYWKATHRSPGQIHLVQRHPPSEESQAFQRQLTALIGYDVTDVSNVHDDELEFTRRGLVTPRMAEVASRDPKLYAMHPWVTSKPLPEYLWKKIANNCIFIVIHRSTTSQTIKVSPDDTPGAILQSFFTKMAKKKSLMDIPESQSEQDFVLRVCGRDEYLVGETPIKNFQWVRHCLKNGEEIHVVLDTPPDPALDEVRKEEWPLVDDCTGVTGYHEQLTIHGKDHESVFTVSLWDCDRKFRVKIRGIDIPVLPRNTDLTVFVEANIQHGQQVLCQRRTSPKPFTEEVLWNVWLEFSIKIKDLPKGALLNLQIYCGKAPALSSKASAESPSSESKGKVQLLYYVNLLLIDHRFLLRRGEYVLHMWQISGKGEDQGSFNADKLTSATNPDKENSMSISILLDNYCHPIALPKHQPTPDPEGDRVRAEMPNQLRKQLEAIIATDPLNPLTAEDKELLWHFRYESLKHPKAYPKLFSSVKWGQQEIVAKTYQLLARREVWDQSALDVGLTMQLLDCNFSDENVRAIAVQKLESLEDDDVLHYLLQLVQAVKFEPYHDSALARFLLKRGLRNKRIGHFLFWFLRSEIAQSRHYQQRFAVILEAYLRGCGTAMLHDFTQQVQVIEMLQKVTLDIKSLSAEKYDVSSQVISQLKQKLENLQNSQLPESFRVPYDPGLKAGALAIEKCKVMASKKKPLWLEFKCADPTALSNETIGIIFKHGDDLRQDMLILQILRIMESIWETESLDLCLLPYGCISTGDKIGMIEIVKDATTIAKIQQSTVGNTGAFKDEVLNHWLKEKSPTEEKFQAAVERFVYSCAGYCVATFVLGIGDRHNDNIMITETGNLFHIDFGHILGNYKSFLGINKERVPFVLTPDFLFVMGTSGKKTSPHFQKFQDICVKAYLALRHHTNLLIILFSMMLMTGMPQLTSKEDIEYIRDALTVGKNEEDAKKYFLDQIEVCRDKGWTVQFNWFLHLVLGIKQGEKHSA
# Chain of Phosphatidylinositol 4,5-bisphosphate 3-kinase catalytic subunit alpha isoform (P42336 whole entry, canonical isoform): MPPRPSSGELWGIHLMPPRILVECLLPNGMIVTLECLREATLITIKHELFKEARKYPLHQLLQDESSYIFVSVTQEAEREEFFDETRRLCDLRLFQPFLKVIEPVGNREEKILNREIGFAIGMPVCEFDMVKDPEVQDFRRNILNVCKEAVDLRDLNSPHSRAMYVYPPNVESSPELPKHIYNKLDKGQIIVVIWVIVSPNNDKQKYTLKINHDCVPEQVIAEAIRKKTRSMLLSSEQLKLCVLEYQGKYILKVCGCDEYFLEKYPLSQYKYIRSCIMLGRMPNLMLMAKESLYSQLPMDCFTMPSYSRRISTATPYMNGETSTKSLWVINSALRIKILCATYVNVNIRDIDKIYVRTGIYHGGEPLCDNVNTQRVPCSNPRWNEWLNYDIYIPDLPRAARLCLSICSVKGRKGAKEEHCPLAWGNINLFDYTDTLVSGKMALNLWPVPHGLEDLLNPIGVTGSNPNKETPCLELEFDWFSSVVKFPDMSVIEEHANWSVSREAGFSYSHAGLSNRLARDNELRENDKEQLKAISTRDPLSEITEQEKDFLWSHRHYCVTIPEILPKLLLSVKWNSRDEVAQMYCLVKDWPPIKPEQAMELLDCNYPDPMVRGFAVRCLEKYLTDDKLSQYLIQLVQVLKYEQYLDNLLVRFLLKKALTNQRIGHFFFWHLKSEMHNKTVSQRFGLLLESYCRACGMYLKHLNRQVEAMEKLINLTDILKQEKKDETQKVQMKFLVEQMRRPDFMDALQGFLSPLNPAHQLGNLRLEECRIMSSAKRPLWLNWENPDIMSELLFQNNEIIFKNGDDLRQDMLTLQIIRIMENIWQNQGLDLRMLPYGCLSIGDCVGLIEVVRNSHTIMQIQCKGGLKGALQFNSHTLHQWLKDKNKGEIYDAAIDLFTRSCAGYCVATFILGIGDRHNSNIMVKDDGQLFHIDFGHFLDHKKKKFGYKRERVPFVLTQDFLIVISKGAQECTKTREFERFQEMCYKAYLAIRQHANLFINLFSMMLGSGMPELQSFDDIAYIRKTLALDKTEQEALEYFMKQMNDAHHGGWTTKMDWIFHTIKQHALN
SMILES,AUC (Rattus norvegicus [1]) [nM],pIC50 [2],pIC50 [3],pIC50 [4],pIC50 [5],half-life [6] [min],pIC50 [7],pIC50 [8],pIC50 [9],AUC (Rattus norvegicus [10]) [nM],Vd [11] [L/kg],half-life [12] [min],clearance [13] [mL/min/kg],fraction unbound [14],bioavailability [15] [%]
Cc1nc(NCCC#N)nc(-n2c(Nc3cc[nH]n3)nc3ccccc32)n1,1020,5.21,5.89,7.09,5.24,42,7.22,5.11,4.81,,,,,,
Cc1nc(NCC#N)nc(-n2c(Nc3ccn[nH]3)nc3ccccc32)n1,,5.44,6.22,7.14,5.40,,7.51,5.21,5.07,559,1.5,27,41.7,0.016,0
